According to PMC11237774, “On-target, dual aminopeptidase inhibition provides cross-species antimalarial activity” (mBio, 2024):
Read-outs that look alike come from different tables or passages of the source.

What was measured:
Pb-M17 = Pb-M17 (Plasmodium berghei, UniProt A0A509APA2); assay: Recombinant aminopeptidase fluorescence assay (H-Leu-NHMec); type: biochemical; conditions: Pb M17, Morrison equation; read-out: Ki^(app) ± SEM
Protocol: Inhibition of aminopeptidase activity assays were performed against nine aminopeptidases: the M1 alanyl and M17 leucyl aminopeptidases from P. falciparum (PfA-M1; PfA-M17), P. vivax (Pv-M1; Pv-M17), and P. berghei (Pb-M1; Pb-M17), and three human M1 homologs: LTA4H (OriGene TP307617), ERAP1 (OriGene TP314469), and ERAP2 (Creative BioMart ERAP2-304H). The Plasmodium enzymes were produced recombinantly as described previously ([16], [17]), and the human recombinant enzymes were purchased from commercial suppliers as indicated.
The concentration of H-Leu-NHMec in the assay was held constant for each enzyme and ranged from 10 to 100 µM, depending on the enzyme. Reactions were measured at 37°C in white 384-well plates in a total volume of 25 or 50 µL using a spectrofluorimeter (BMG FLUOstar) with excitation at 355 nm and emission at 460 nm. The fluorescence signal was continuously monitored until a final steady-state velocity, v, was obtained. Inhibition constants were calculated from biological triplicates made from three different protein preparations.
Substrate concentrations were selected to allow sensitive detection of enzyme activity while not exceeding the Km for each enzyme. A compound concentration range was selected to obtain a complete inhibition curve (0%–100 %) in biological triplicate. Where possible, the Ki values were calculated by plotting the initial rates versus inhibitor concentration and fitting to the Morrison equation for tight-binding inhibitors in GraphPad Prism (V.8.4.1; non-linear regression method).

Pf3D7 = assay: Parasite killing rate (wash-out) assay; type: cell-based, P. falciparum; conditions: washout after 24 or 48 h of treatment, 10× EC50, parasites traversed a trophozoite stage
Protocol: Assays were performed as previously described ([7]). […] Parasite cultures incubated for 48 h were fed at 24 h with fresh media containing compound. […] Once thawed, cultures were analyzed using SYBR Green I as described above. Parasite viability was determined as a percentage of vehicle-treated controls, and experiments were performed in four biological replicates.

7G8 = assay: microbe, parasite or virus in culture; type: cell-based, P. falciparum; conditions: Plasmodium falciparum, read-out: EC50 nM (mean)
Protocol: (§1) In vitro testing was performed using the modified [^3H]hypoxanthine incorporation assay, as previously reported ([34]). The specific mutations in the field isolates (see Table 1, top six strains) have been previously described ([35], [36]), as have the specific mutations in the laboratory-selected Dd2 parasites (see Table 1, remaining five strains) ([36]).

Cam3.1 (MRA1240) = assay: microbe, parasite or virus in culture; type: cell-based, P. falciparum; conditions: Plasmodium falciparum, read-out: EC50 nM (mean)
Protocol: as §1

Dd2 = assay: microbe, parasite or virus in culture; type: cell-based, P. falciparum; conditions: Plasmodium falciparum, DD2, read-out: EC50 nM (mean)
Protocol: as §1

K1 = assay: microbe, parasite or virus in culture; type: cell-based, P. falciparum; conditions: Plasmodium falciparum, read-out: EC50 nM (mean)
Protocol: as §1

NF54 = assay: microbe, parasite or virus in culture; type: cell-based, P. falciparum; conditions: Plasmodium falciparum
Protocol: as §1

TM90C2B = assay: microbe, parasite or virus in culture; type: cell-based, P. falciparum; conditions: Plasmodium falciparum, read-out: EC50 nM (mean)
Protocol: as §1

[1] = Metabolic stability in liver microsomes; type: in vitro ADME; conditions: read-out: in vitro microsomal CLint
Protocol: Samples were collected over the incubation period, quenched by the addition of an equal volume of acetonitrile, and analyzed using a Waters Acquity UPLC and Xevo G2 QTOF mass spectrometer with positive electrospray ionization under the MS^E mode. The natural log of the substrate concentration was plotted against the incubation time to determine the first-order degradation rate constant which was normalized to the microsomal protein concentration to give the in vitro intrinsic clearance (in vitro CLint, µL/min/mg microsomal protein). […] Cell viability was determined by Trypan Blue exclusion. At various times over the incubation period, samples were quenched with the addition of an equal volume of acetonitrile and analyzed as described above. Metabolite identification was conducted by accurate mass and tandem mass spectrometry (MS/MS) analysis.

Plasma stability = type: in vitro ADME; conditions: 37°C
Protocol: After centrifugation, the supernatant was collected and stored at −80°C until analysis. Sample analysis was conducted using a Waters Acquity UPLC and Quattro Premier mass spectrometer operated in a positive electrospray ionization mode with multiple-reaction monitoring (transition [m/z] 395.27 > 362.28, cone voltage 20 V, CID 7 V). […] The injection volume was 3 µL, and the flow rate was 0.4 mL/min. Concentrations were determined by comparison to a calibration curve prepared in blank plasma and processed in the same way as for the samples.

[2] = Plasma protein binding by ultracentrifugation; type: in vitro ADME, human; conditions: plasma (10% plasma diluted with PBS), pH 7.4
Protocol: (§2) Human plasma was obtained from the Volunteer Blood Donor Registry (Walter & Eliza Hall Institute, Melbourne, Australia), rat plasma was from male Sprague-Dawley rats (Animal Resource Centre, Perth, Western Australia) and mouse plasma was procured as described above. RPMI-1640 media supplemented with 25 mM HEPES, 2 g/L sodium bicarbonate, and 100 mg/L neomycin were additionally supplemented with 5 […] on the day prior to binding assessment. […] Additional aliquots of spiked matrix were maintained at 37°C for 4.2 h but not centrifuged to serve as controls for stability assessment and to obtain a measure of the total concentration in each matrix. Following centrifugation, aliquots of the protein-free supernatant and the non-centrifuged matrix controls were “matrix matched” by addition of an equal volume of the opposite medium (i.e., either blank buffer or blank matrix) and assayed as described above with comparison to calibration standards prepared in 50% matrix/50% PBS.

[3] = Plasma protein binding by ultracentrifugation; type: in vitro ADME; conditions: plasma (10% plasma diluted with PBS), pH 7.4
Protocol: as §2

[4] = Binding to Albumax medium by ultracentrifugation; type: in vitro ADME
Protocol: as §2

MMP2, 7, 8, 9, and 13 = system: MMP2, 7, 8, 9, and 13; design: method as in PMID 30537832; conditions: tested up to 200 µM; cited from earlier work
[5] = In vivo exposure after single oral dosing; conditions: male, Swiss outbred, mouse, plasma, 50 mg/kg
Protocol: This produced a uniform off-white milky suspension of pH 6.0. […] Samples were collected by either submandibular bleed (~120 µL) or terminal cardiac puncture (under inhaled isoflurane anesthesia). Blood samples were centrifuged immediately, and supernatant plasma was removed and stored at −80°C until analysis as described above.

Chain of Pb-M17 (A0A509APA2 entry or part of it): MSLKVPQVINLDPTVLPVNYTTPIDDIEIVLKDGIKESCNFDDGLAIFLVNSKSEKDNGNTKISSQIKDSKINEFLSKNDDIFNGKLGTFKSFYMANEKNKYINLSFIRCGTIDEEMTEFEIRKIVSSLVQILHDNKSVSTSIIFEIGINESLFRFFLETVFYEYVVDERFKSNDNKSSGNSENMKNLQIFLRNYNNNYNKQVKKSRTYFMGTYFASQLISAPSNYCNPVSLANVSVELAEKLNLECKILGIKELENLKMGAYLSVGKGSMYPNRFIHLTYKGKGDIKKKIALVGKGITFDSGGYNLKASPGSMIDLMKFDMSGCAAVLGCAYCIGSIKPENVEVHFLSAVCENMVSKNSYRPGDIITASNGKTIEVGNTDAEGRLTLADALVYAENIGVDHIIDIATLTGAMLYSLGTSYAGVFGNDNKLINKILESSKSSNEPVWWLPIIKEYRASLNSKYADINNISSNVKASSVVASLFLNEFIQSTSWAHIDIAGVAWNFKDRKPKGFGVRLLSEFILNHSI

CC(C)(C)CC(=O)NC(C(=O)NO)c1ccc(-c2cc(F)c(F)c(F)c2)cc1 (centres unmarked) [MMV1557817, N-(2-(hydroxyamino)−2-oxo-1-(3′,4′,5′-trifluoro-[1,1′-biphenyl]-4-yl)ethyl)-3,3-dimethylbutanamide]
Ki (Pb-M17): 130 ± 7 nM
parasite survival (Pf3D7): less than 10%
EC50 (7G8): 28 nM
EC50 (Cam3.1 (MRA1240)): 23 nM
EC50 (Dd2): 23 nM
EC50 (K1): 26 nM
EC50 (NF54; NF54, read-out: unbound EC50): 3.4 nM
EC50 (NF54; NF54, sensitive strain, read-out: EC50 nM (mean)): 22 nM
EC50 (TM90C2B): 21 nM
microsomal CLint at 1 µM ([1]; human liver microsomes): 11 µL/min/mg
microsomal CLint at 1 µM ([1]; mouse liver microsomes): 23 µL/min/mg
microsomal CLint at 1 µM ([1]; rat liver microsomes): 29 µL/min/mg
remaining at 4 h (Plasma stability; human plasma): 97%
remaining at 4 h (Plasma stability; mouse plasma): 93%
fraction unbound at 4.2 h ([2]; Sprague-Dawley (rat plasma), human, summary in text over the plasma species tested, read-out: bound to plasma proteins): 0.01 to 0.02
fraction unbound at 4.2 h ([2]; human plasma, read-out: Plasma protein binding (converted)): 0.012
fraction unbound at 4.2 h ([3]; male, Sprague-Dawley, rat plasma): 0.022
fraction unbound at 4.2 h ([3]; mouse plasma): 0.023
unbound in Albumax medium ([4]; Albumax medium): 15.5%
Albumax media binding ([4]; Albumax medium used for in vitro activity assessment): 84.5%
off-target inhibition (MMP2, 7, 8, 9, and 13): limited off-target inhibitory affects
AUC(0-inf) [5]: 15.2 µM·h
AUC(0-t) [5]: 14.9 µM·h
Cmax [5]: 5.2 µM
Tmax [5]: 0.5 h
half-life [5]: 4.3 h
